Results on ten molecules are retold here after the Kinase Knowledgebase extract (Sharma et al. 2016).

The target of assay [1] is PIK3CA (human) (UniProt P42336). As to the kind of experiment: Enzyme Assay.
The target of assay [2] is PIK3CG (human) (UniProt P48736). Description: Inhibition of PIK3CG Kinase Activity.

pIC50: −log10 of the molar value.

PIK3CG (human), sequence (P48736 whole entry, looked up): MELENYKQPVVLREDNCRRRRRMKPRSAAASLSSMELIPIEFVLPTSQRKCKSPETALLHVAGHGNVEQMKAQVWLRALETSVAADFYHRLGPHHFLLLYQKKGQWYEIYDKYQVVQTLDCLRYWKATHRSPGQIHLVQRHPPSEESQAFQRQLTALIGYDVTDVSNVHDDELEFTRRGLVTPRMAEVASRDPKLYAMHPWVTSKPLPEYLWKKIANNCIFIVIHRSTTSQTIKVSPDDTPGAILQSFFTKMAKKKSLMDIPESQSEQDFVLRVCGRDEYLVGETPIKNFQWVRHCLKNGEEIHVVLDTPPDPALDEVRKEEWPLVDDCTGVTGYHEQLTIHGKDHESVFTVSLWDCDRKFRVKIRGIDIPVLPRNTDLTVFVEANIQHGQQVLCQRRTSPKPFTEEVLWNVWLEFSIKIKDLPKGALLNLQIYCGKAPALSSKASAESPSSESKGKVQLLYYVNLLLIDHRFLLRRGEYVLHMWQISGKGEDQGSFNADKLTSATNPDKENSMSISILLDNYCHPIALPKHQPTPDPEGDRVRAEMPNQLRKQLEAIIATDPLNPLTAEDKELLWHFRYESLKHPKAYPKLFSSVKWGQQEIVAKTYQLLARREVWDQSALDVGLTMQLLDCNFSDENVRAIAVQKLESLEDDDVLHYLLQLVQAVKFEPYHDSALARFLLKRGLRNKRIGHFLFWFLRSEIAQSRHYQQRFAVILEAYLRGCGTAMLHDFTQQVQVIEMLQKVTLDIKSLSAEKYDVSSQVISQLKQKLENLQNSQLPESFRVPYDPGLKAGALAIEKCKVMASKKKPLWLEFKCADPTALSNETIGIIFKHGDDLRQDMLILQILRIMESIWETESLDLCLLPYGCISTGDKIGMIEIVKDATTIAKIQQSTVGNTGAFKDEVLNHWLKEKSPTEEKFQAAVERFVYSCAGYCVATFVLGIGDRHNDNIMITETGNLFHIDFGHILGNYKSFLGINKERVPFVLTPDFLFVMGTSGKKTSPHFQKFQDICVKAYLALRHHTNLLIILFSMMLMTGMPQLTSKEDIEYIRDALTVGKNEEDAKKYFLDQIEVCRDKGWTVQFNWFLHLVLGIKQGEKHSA
PIK3CA (human), sequence (P42336 whole entry, looked up): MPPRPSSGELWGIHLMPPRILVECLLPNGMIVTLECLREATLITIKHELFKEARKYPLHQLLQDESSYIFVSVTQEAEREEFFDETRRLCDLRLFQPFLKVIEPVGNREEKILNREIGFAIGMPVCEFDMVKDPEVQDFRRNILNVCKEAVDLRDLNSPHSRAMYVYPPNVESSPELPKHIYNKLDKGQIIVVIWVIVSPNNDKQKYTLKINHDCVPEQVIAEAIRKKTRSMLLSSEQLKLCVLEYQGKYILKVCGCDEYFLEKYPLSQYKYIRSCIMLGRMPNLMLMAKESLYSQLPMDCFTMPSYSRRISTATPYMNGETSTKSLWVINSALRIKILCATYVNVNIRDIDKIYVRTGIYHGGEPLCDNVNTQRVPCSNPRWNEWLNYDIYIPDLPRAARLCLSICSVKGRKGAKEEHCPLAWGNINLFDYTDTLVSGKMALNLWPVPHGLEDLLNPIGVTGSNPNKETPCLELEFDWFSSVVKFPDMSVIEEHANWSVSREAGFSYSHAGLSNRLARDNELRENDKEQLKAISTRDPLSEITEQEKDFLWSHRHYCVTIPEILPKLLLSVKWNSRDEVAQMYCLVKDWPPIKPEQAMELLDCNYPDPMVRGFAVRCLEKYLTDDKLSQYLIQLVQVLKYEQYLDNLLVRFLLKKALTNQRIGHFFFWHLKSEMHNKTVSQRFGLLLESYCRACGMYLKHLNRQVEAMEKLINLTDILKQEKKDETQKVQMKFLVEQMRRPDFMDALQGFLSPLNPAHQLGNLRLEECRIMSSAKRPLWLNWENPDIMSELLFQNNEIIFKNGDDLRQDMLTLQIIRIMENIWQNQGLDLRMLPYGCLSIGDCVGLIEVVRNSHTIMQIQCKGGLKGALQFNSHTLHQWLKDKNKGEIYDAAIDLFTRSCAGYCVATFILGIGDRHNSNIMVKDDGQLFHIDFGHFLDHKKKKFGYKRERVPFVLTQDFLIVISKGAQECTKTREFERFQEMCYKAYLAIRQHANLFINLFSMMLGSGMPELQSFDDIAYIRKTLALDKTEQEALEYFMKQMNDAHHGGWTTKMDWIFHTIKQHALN

For orientation: pIC50 means −log10 of the IC50, conventionally taken in molar units. A high value points to a low IC50. For the molecule `CN(C)S(=O)(=O)c1ccc(-c2ccnc3c2c(/C=C2\Oc4cccc(O)c4C2=O)cn3C)cc1`, the results for the pIC50 in assay [1] and in assay [2] were 7.42 and 6.97, respectively.
The matching figures for `CN(C)C(=O)CN(C)C(=O)C1CCN(c2ccnc3c2c(C=C2Oc4ccc(NC(=O)Nc5cccnc5)cc4C2=O)cn3C)CC1`: 5.37 and 5.17.
The matching figures for `Cn1cc(/C=C2\Oc3cc(O)cc(O)c3C2=O)c2c(-c3cncnc3)ccnc21`: 7.74 and 6.83.
For `Cn1cc(/C=C2\Oc3cccc(O)c3C2=O)c2c(-c3ccc(C4=NCCCO4)cc3)ccnc21` the same measures were 6.96 and 6.56.
As for `Cn1cc(/C=C2\Oc3cccc(O)c3C2=O)c2c(-c3ccc(C(=O)N4CCOCC4)cc3)ccnc21`, the pIC50 in assay [1] was 7.31; in assay [2], 7.27.
For `Cn1cc(/C=C2\Oc3ccc(NC(=O)Nc4ccc(Cl)nc4)cc3C2=O)c2c(N3CC4CCC(C3)O4)ccnc21` the same measures were 6.13 and 5.60.
The matching figures for `COc1ccc(-c2ccnc3c2c(/C=C2\Oc4cc(O)cc(O)c4C2=O)cn3C)cc1`: 7.28 and 6.80.
For `Cn1cc(/C=C2\Oc3cccc(O)c3C2=O)c2c(-c3ccc[nH]3)ccnc21`, the pIC50 in assay [1] is 6.42; in assay [2], 5.68.
As for `Cn1cc(/C=C2\Oc3ccc(NC(=O)NC4CC4)cc3C2=O)c2c(N3CC4CCC(C3)O4)ccnc21`, the pIC50 in assay [1] was 6.54; in assay [2], 5.67.
The matching figures for `Cn1cc(/C=C2\Oc3cc(O)cc(O)c3C2=O)c2c(-c3ccc(OC(F)(F)F)cc3)ccnc21`: 6.74 and 6.86.
